Test results: US9956222B2, “Quinazoline derivative as tyrosine-kinase inhibitor, preparation method therefor and application thereof” (Xuanzhu Pharma Co., Ltd., priority 2011, dated 2018)

Legend:
[1] = molecular target: T1, EGFR: human epidermal growth factor receptor (Homo sapiens, UniProt P00533); experiment: In vitro enzyme inhibitory activity (Caliper, FAM labeled peptide); format: biochemical; conditions: EGFR kinase, 28° C., 1 h
T1 construct: purchased Carna
Protocol: (§1) In vitro enzyme inhibitory activity of the present compounds
EGFR: human epidermal growth factor receptor (Carna);
(§2) 1. Formulating the agents to be used in the assay
(§3) (3) Stop buffer (100 mM HEPES, pH 7.5, 0.015% Brij-35, 0.2% Coating Reagent #3, 50 mM EDTA);
(§4) (6) 5-fold compound solutions (using 100% DMSO to formulate 50-fold compound solutions having different concentration gradients, and diluting with water by 10 times to obtain 5-fold compound solutions having different concentration gradients);
(§5) 2. Adding 5 μL of a 5-fold compound solution to a 384-well plate;
(§6) 3. Adding 10 μL of a 2.5-fold kinase solution to incubate for 10 min;
(§7) 4. Then adding 10 μL of a 2.5-fold peptide solution, and reacting at 28° C. for 1 h; and
(§8) 5. Finally, adding 25 μL of stop buffer to terminate the reaction, and reading the data with Caliper.
(§9) 6. Curve fitting to obtain an IC50 value. The calculated inhibition ratio (%)=(the maximum conversion rate−the conversion rate)/(the maximum conversion rate−the minimum conversion rate)×100
(§10) The curve fitting was conducted with the Xlfit software to obtain IC50 values.

[2] = molecular target: T2, HER2: human epidermal growth factor receptor 2 (Homo sapiens, UniProt P04626); experiment: as above; format: biochemical; conditions: HER2 kinase, 28° C., 1 h
T2 construct: purchased Carna
Protocol: as §1
HER2: human epidermal growth factor receptor 2 (Carna);
as §2, §3, §4, §5, §6, §7, §8, §9, §10

[3] = molecular target: T3, HER4: human epidermal growth factor receptor 4 (Homo sapiens, UniProt Q15303); experiment: as above; format: biochemical; conditions: HER4 kinase, 28° C., 1 h
T3 construct: purchased Carna
Protocol: as §1
HER4: human epidermal growth factor receptor 4 (Carna).
as §2, §3, §4, §5, §6, §7, §8, §9, §10

[4] = system: A431 cells (Epidermoid carcinoma); experiment: In vitro cellular inhibitory activity, XTT method; format: cell-based; conditions: Homo sapiens, A-431, 72 hours, read-out: in vitro cellular inhibitory activities on A431 IC50
Protocol: (§11) In vitro cellular inhibitory activity of the present compounds
(§12) 1. Formulating the agents and the compounds
(§13) 2) Formulating the XTT working liquor: […]
(§14) The mixture was filtered, packaged separately, and used immediately or within one week. It is necessary for all of the processes to be kept in darkness.
(§15) 3) Formulating test compounds
(§16) Formulating a stock solution of test compound: […]
(§17) The compound powder was dissolved into DMSO until a concentration of 10 mM reached.
(§18) Formulating gradient dilute solutions of test compound: […]
(§19) First, the 10 mM stock solution of test compound was diluted with DMSO in a 4-fold successive gradient for 10 concentrations. 2 μL DMSO-diluted compound was added to 998 μL of the culture medium containing 10% FBS. Therefore, the maximum concentration of the compound is 20 μM, the concentration of DMSO is 0.2%, and there are 10 concentration gradients in total.
(§20) 1) Preparing the cell suspension
(§21) The culture medium was removed from the culture bottle. The cells were rinsed twice with PBS. The pancreatic enzyme was added to digest cells. The digested cells were collected by centrifuge. The cells were resuspended with a culture medium containing 10% fetal calf serum, counted and adjusted to an appropriate concentration (the cell viability should be over 90%). The cell concentration was 5×10^4/ml.
(§22) 2) The cell suspension was added to the 96-well plate, 100 μL per well.
(§23) 3) The plate was placed in the incubator and incubated at 37° C. under 5% CO2 overnight.
(§24) Drugs were added to the cell culture plate. The plate was placed in the incubator and incubated at 37° C. under 5% CO2 for 72 hours.
(§25) 5. Testing the cell viability with the XTT method
(§26) The XTT working solution was added to the plate. The plate was placed in the incubator and incubated at 37° C. under 5% CO2 for 2 hr. Then the plate was placed in a microplate reader to read the absorbance at 450 nm.
(§27) 2) Data were input into GraphPad Prism 5.0 to plot a curve and obtain IC50.

[5] = system: H1975 Cells (NSCLC, non-small cell lung cancer); experiment: In vitro cellular inhibitory activity, XTT method; format: cell-based; conditions: Homo sapiens, NCI-H1975, 72 hours, read-out: in vitro cellular inhibitory activities on H1975 IC50
Protocol: as §11, §12, §13, §14, §15, §16, §17, §18, §19, §20, §21, §22, §23, §24, §25, §26, §27

[6] = system: SKOV3 cells (Ovarian carcinoma); experiment: In vitro cellular inhibitory activity, XTT method; format: cell-based; conditions: Homo sapiens, SK-OV-3, 72 hours, read-out: in vitro cellular inhibitory activities on SKOV3 IC50
Protocol: as §11, §12, §13, §14, §15, §16, §17, §18, §19, §20, §21, §22, §23, §24, §25, §26, §27

T1 sequence (P00533 25-1210): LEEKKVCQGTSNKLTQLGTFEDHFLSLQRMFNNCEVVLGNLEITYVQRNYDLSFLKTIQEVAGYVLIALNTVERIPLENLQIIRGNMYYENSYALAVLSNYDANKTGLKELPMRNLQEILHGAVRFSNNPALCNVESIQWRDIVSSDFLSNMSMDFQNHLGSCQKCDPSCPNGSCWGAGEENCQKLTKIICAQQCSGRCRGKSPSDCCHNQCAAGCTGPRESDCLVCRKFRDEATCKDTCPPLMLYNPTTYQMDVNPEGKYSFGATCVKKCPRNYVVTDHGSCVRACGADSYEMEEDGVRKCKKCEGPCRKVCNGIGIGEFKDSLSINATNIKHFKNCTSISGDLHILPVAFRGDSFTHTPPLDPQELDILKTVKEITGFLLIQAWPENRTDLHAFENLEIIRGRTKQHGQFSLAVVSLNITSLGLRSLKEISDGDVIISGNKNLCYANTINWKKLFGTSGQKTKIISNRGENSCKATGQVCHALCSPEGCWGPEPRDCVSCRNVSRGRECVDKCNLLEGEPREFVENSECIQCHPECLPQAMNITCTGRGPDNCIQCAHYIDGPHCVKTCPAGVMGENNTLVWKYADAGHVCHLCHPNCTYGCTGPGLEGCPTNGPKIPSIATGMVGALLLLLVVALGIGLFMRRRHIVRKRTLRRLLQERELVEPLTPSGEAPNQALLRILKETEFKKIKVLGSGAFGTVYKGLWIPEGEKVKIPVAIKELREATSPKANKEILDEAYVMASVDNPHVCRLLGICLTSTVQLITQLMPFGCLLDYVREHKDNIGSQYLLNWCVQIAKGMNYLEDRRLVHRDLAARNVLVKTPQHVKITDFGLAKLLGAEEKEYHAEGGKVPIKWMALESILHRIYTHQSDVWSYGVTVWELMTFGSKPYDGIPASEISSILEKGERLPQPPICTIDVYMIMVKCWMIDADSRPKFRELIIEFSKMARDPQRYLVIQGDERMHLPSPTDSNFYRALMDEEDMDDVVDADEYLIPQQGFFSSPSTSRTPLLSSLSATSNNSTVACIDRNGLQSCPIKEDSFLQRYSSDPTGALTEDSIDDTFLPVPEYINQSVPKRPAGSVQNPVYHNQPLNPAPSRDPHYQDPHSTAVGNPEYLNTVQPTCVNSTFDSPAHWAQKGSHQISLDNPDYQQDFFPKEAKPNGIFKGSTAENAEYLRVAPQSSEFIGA
T3 sequence (Q15303 26-1308): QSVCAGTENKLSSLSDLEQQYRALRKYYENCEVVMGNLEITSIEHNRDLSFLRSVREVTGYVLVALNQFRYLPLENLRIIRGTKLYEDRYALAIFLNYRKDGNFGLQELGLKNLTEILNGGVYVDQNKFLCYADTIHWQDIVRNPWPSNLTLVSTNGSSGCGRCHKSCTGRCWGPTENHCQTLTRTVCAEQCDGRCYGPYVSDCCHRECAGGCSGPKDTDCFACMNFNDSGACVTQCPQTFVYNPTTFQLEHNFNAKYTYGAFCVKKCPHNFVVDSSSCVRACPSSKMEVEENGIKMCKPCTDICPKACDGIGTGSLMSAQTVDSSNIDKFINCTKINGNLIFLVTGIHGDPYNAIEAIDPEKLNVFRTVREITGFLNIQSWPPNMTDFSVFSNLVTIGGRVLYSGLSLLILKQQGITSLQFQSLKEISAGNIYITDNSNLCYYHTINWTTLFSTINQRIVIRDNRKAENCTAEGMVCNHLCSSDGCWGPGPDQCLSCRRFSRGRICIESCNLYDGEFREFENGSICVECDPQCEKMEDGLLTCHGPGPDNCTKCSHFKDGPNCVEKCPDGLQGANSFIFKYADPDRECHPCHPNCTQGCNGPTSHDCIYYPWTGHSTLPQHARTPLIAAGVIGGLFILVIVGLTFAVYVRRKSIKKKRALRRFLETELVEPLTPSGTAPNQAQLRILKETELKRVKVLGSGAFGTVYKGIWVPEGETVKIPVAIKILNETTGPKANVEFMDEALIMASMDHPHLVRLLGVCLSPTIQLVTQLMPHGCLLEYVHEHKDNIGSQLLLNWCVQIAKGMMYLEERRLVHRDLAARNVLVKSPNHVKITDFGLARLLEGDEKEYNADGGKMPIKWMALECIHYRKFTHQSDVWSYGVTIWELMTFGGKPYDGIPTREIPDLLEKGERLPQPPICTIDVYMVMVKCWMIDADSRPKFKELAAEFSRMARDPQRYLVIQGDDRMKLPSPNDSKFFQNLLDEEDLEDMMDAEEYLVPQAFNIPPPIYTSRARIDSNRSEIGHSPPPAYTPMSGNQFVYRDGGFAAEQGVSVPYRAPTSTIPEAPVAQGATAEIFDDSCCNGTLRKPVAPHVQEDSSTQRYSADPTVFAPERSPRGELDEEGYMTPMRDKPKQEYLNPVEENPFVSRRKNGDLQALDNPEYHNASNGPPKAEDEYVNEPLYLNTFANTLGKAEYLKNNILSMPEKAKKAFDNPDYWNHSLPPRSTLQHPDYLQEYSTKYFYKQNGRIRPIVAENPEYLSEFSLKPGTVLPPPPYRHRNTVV
T2 sequence (P04626 23-1255): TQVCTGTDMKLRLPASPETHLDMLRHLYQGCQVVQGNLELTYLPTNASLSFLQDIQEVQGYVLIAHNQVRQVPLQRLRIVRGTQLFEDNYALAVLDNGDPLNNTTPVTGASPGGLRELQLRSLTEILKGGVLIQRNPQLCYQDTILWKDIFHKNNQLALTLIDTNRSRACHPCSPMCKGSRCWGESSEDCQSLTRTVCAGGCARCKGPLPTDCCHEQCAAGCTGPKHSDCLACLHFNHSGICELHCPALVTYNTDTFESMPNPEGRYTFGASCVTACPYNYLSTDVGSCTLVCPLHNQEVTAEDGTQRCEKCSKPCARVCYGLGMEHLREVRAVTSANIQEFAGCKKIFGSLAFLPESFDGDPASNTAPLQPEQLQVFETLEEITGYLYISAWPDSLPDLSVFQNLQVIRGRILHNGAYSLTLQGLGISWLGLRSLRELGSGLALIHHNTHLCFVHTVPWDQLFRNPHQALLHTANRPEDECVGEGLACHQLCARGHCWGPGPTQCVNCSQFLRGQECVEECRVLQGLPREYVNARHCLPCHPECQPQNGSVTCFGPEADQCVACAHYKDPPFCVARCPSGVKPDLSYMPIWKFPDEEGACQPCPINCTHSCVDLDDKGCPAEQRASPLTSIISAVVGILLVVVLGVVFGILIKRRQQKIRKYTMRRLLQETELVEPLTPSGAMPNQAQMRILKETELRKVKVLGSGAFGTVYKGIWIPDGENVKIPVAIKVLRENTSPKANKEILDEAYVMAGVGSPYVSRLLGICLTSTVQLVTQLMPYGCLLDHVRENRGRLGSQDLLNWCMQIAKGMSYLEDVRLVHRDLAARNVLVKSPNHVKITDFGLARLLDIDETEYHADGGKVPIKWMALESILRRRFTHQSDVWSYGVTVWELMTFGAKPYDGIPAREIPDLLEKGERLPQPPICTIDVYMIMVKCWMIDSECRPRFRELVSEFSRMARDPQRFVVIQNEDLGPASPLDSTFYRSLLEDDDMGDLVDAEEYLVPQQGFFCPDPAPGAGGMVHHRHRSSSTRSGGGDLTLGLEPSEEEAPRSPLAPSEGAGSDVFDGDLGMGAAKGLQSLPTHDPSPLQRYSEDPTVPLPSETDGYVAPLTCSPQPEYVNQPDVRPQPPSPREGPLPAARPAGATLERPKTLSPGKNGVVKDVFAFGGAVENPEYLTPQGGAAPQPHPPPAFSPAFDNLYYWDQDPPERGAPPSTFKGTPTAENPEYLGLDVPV

Structure (SMILES) | IC50 [1] [nM] | IC50 [2] [nM] | IC50 [3] [nM] | IC50 [4] [nM] | IC50 [5] [nM] | IC50 [6] [nM]
COc1cc2ncnc(Nc3ccc(F)c(Cl)c3)c2cc1NC(=O)/C=C/CN1CC2(CCC2)C1 [Compound 2] | 0.65 | 19 | 8.9 | 33.3 | 148 | 3220
COc1cc2ncnc(Nc3ccc(F)c(Cl)c3)c2cc1NC(=O)/C=C/CN1CC2(CCCCC2)C1 [Compound 15, (E)-N-[4-(3-chloro-4-fluorophenylamino)-7-methoxyquinazolin-6-yl]-4-(2-azaspiro[3.5]nonan-2-yl)-2-butenamide] | – | – | – | – | 179 | 3640
COc1cc2ncnc(Nc3ccc(F)c(Cl)c3)c2cc1NC(=O)/C=C/CN1CCC2(CC2)C1 [Compound 26, (E)-N-[4-(3-chloro-4-fluorophenylamino)-7-methoxyquinazolin-6-yl]-4-(5-azaspiro[2.4]heptan-5-yl)-2-butenamide] | – | – | – | – | 85.6 | 3070
COc1cc2ncnc(Nc3ccc(F)c(Cl)c3)c2cc1NC(=O)/C=C/CN1CCC2(CC1)COC2 [Compound 29, (E)-N-[4-(3-chloro-4-fluorophenylamino)-7-methoxyquinazolin-6-yl]-4-(2-oxa-7-azaspiro[3.5]nonan-7-yl)-2-butenamide] | – | – | – | – | 57.1 | –
COc1cc2ncnc(Nc3ccc(F)c(Cl)c3)c2cc1NC(=O)/C=C/CN1CCCCC1 [PF-00299804, reference compound] | – | – | – | 548 | 356 | 3960

Next, values leading:

IC50 [1] [nM] | IC50 [2] [nM] | IC50 [3] [nM] | IC50 [4] [nM] | IC50 [5] [nM] | IC50 [6] [nM] | Structure (SMILES)
0.55 | 14 | 3.1 | – | – | – | COc1cc2ncnc(Nc3ccc(F)c(Cl)c3)c2cc1NC(=O)/C=C/CN1CC2CC2C1 (stereo not drawn) [Compound 1, (E)-4-[3-azabicyclo[3.1.0]hexan-3-yl]-N-[4-(3-chloro-4-fluorophenylamino)-7-methoxyquinazolin-6-yl]-2-butenamide]
– | – | – | – | 134 | 3710 | COc1cc2ncnc(Nc3ccc(F)c(Cl)c3)c2cc1NC(=O)/C=C/CN1CC2(CCCC2)C1 [Compound 14, (E)-N-[4-(3-chloro-4-fluorophenylamino)-7-methoxyquinazolin-6-yl]-4-(2-azaspiro[3.4]octan-2-yl)-2-butenamide]
– | – | – | – | – | 3060 | COc1cc2ncnc(Nc3ccc(F)c(Cl)c3)c2cc1NC(=O)/C=C/CN1CCC2(CCC2)CC1 [Compound 17, (E)-N-[4-(3-chloro-4-fluorophenylamino)-7-methoxyquinazolin-6-yl]-4-(7-azaspiro[3.5]nonan-7-yl)-2-butenamide]
– | – | – | – | 91.9 | 3190 | COc1cc2ncnc(Nc3ccc(F)c(Cl)c3)c2cc1NC(=O)/C=C/CN1CCC2(CCC2)C1 [Compound 27, (E)-N-[4-(3-chloro-4-fluorophenylamino)-7-methoxyquinazolin-6-yl]-4-[6-azaspiro[3.4]octan-6-yl]-2-butenamide]
– | – | – | – | 39 | – | COc1cc2ncnc(Nc3ccc(F)c(Cl)c3)c2cc1NC(=O)/C=C/CN1CCCC2(COC2)C1 [Compound 28, (E)-N-[4-(3-chloro-4-fluorophenylamino)-7-methoxyquinazolin-6-yl]-4-[2-oxa-6-azaspiro[3.5]nonan-6-yl]-2-butenamide]
– | – | – | – | – | 3350 | COc1cc2ncnc(Nc3ccc(F)c(Cl)c3)c2cc1NC(=O)/C=C/CN1CCC2(CC1)CC2 [Compound 30, (E)-N-[4-(3-chloro-4-fluorophenylamino)-7-methoxyquinazolin-6-yl]-4-(6-azaspiro[2.5]octan-6-yl)-2-butenamide]
